{
  "source": "patent US7329649B2",
  "about": "“Combinatorial methods for inducing cancer cell death” (The Trustees of Columbia University in the City of New York, priority 2001, dated 2008)",
  "system": "mutated or wild type K-ras expressing pancreatic carcinoma cells",
  "assay": "Cell growth and viable cell numbers (hemocytometer, MTT)",
  "assay_type": "cell-based, human",
  "protocol": "FIG. 5. […] Cells were treated with the indicated agents for three days and viable cell counts were determined by hemocytometer.\nCell lines, culture conditions and growth assays.",
  "data": [
    {"substance": "MM PS ODN: mismatched K-ras PS ODN CACTTGCAAATATTCAGT (SEQ ID NO:16) (DNA, all phosphorothioate, methylation of C not given here)", "values": [
      {"measurement": "growth suppression compared with AS K-ras PS ODN", "value": "significantly less growth suppression"}
    ]},
    {"substance": "SC PS ODN: scrambled K-ras PS ODN ACTAGCTATACTAGCTAT (SEQ ID NO:17) (DNA, all phosphorothioate, methylation of C not given here)", "values": [
      {"measurement": "growth suppression compared with AS K-ras PS ODN", "value": "significantly less growth suppression"}
    ]}
  ]
}
